The term melting point denotes the temperature, or range, at which the solid turns liquid.

The text below walks through data of a melting point compilation (Tetko et al.; mined from patent text by program, amines drawn as free bases though some values may be those of a salt).

Molecule `Nc1cc(CS(=O)(=O)CCO)ccc1CS(=O)(=O)CCO` showed a melting point of 196 to 198 °C. On to `CCc1cccc(CC)c1-n1c(C(=O)O)cnc1SCc1ccccc1`, for which the melting point is 152 to 154 °C. To `CC(C)(C)OC(=O)N[C@H](Cc1ccc(Cl)c(Cl)c1)C(=O)N1CCC[C@H]1C(=O)NC1CCc2nc(N)ncc2C1` (stereo partly specified) belongs 114 to 117 °C. With `CN(C)C(=O)c1cc2n(n1)-c1ccc(Cl)cc1C(c1ccccc1)=NC2` the figure was 176 to 178 °C.

`Cc1cc2c(Cl)cc(F)c(-c3ccc(C(F)(F)F)n(C)c3=O)c2o1` had a melting point of 138 to 140 °C. To `COc1ccc(C(=O)Nc2c(Cl)cncc2Cl)c2[nH]c(C(F)(F)F)nc12` belongs 300 to 301 °C; to `NS(=O)(=O)c1cc2ccccc2n1S(=O)(=O)c1ccccc1`, 199 to 200 °C.

The molecule `CN1OC(CNc2ccccc2)CC1(Cn1ccnc1)c1ccc(Cl)cc1` (stereo unspecified) registered a melting point of 159 to 160 °C. To `N#CCn1nnc(NC(=O)C(c2ccccc2)c2ccccc2)n1` belongs 173 to 174 °C; to `COC(=O)c1nc(Cl)n2c1CN=C(c1ccccc1Cl)c1cc(Cl)ccc1-2`, 200 to 202 °C. With `CCOC(=O)C1=C(O)c2cc(OC)c(OC)cc2NC(=O)C1` the figure was 218 °C. `O=C(NCCCCCCOC(=O)N1CCC2(CCCC2)CC1)OC1CCN(C(=O)Oc2ccc(Oc3ccccc3)cc2)CC1` gave a melting point of 83 to 85 °C.

In turn, `NC(=O)c1ccc(OCC(F)(F)F)cc1` had a melting point of 177 to 178 °C. To `COCCOc1cc2ncnc(NC3=CC(=O)C(Oc4ccc(C)cc4)=CC3=O)c2cc1OC` belongs 171 to 172 °C; to `COc1c(NC(=O)Nc2ccc(Oc3cc(C)nc(C)n3)c3ccccc23)cc(C(F)(F)F)cc1NS(C)(=O)=O`, 212 to 213 °C; to `CCOC(=O)c1cc2cccc(N(C)S(=O)(=O)c3ccccc3OC)c2n1COC`, 124 to 125 °C. To `O=S(=O)(c1ccc(Cl)cc1)N1CCCC1c1ccc(Cl)cc1` (racemic) belongs 159 °C; to `Cc1c(Cl)cccc1S(=O)(=O)Nc1ccc2nc(C)n(CCO)c2c1`, 213 to 214 °C.

As for `N#Cc1cnc(N)nc1-c1ccc(Cl)cc1C1(c2ccccc2F)OCC(CCl)O1` (stereo unspecified), the melting point fell in the range of 184 to 191 °C.

In turn, `CCOc1cccc(C)c1N(C(=O)n1nc(OCC)n(C)c1=O)S(N)(=O)=O` returned a melting point of 147 °C. Molecule `C[C@@H]1N=C(c2ccccc2)c2cc(C#CCCCC(=O)O)ccc2N(C)C1=O` showed a melting point of 62 to 63 °C. To `COc1cccc2c(Nc3cccc(N(C)C)c3)c(C#N)cnc12` belongs 222 to 225 °C. With `O=C(Nc1ccc(Cl)c(Cl)c1)c1cc(C(F)(F)F)cc([N+](=O)[O-])c1Cl` the figure was 202 °C. With `O=C(O)Cc1cccc2c(C3CCCC3)nccc12` the figure was 172 °C; with `CC(=NO)c1ccc(N)c(S(N)(=O)=O)c1`, 230 to 233 °C; with `CSc1nn(Cc2cccc(C(F)(F)F)c2)c(N)c1C#N`, 142 °C. Consider `COc1cccc(-c2nc(N)nc(Nc3cccc(Br)c3)n2)c1`, for which the melting point is 142 °C. With `COc1ccc(COC(=O)Nc2cncc(O)c2CCCOc2cccnc2Oc2cccc(Cl)c2)cc1` the figure was 150 °C; with `CCOC1CC2(C)C(CCC3C4CCC(=O)C4(C)CC(=O)C32)CC1O` (stereo unspecified), 164 to 167 °C. `CCCCc1cn(-c2c(C)cc(C(C)(C)C)cc2C)c(=O)n1Cc1ccc(-c2ccccc2-c2nnn[nH]2)cc1` registered a melting point of 134 to 135 °C.

Consider `CC(=O)OC1=C(c2nnc(C)o2)N(C)S(=O)(=O)c2ccccc21`, for which the melting point was 188 to 190 °C. Consider `CCc1nn(-c2ccc(C(=N)N)cc2)c(=O)n1-c1ccc(CCC(=O)OC(C)C)cc1`, for which the melting point was more than 250 °C. `O=c1c(Cl)c(Cl)cnn1[C@@H]1C[C@H](O)[C@@H](O)[C@H]1O` (racemic) gave a melting point of 163 °C. To `CSC(=S)C12CC3CC(CC(C3)C1)C2` belongs 64.5 to 66 °C; to `O=C(O)CCC(=O)c1ccc2sc3ccccc3c2c1`, 157 to 158 °C; to `N#Cc1cc2nc(O)c(O)nc2cc1C#N`, more than 300 °C. With `COc1c(N2CCC(c3ccccc3CN)C2)c(F)cc2c(=O)c(C(=O)O)cn(C3CC3)c12` (stereo unspecified) the figure was 170 to 174 °C. Regarding `CN1CC(CCCl)Sc2ncccc2C1=O` (stereo unspecified), the melting point was 97 to 100 °C. Take `CN1C(=O)CC[C@]2(C)c3ccc(C=Cc4ccccc4)cc3CC[C@@H]12`: the melting point was in the range of 173 to 175 °C. With `Cc1nc2ccccc2n(-c2ccc(Cl)cc2)c1=O` the figure was 185 to 187 °C; with `O=C(NCCc1ccccc1F)c1c(Cl)ccc2nc(N3CCC(C(=O)O)CC3)ccc12`, 270 to 272 °C. With `CC(C(=O)O)c1ccc(-c2ccc(Br)cc2F)cc1` (stereo unspecified) the figure was 137 to 139 °C; with `CC(C)C(c1ccc2[nH]c(=O)c(C(=O)O)nc2c1)n1ccnc1` (stereo unspecified), 238 °C. The molecule `Nc1ccc(C#Cc2cnn3c(C4CC4)cc(-c4ccc(C(F)(F)F)cc4)nc23)cn1` yielded a melting point of 228 to 231 °C. To `CCOc1ccc(C2=NN(c3ccc(S(=O)(=O)O)cc3)C(=O)[C@H]3CC=CC[C@@H]23)cc1OCC` (relative stereo) belongs 65 to 69 °C.

`CCCc1c(OCCCOc2ccc(-c3csc(=S)[nH]3)c(OC)c2CCC)ccc2c1OC(C(=O)O)CC2` (stereo unspecified) had a melting point of 149 to 151 °C. To `O=C(NC1CCC(CCN2CCC(c3cccc4c3CCO4)CC2)CC1)C(O)C(F)(F)F` (racemic) belongs 179 °C; to `CCCCCCCC(=O)Oc1ccc(C(=O)O)cc1`, 51 °C; to `Cc1ccc(C(=O)Nc2cn(C3CCCCO3)nc2C(=O)NCCC#N)cn1` (stereo unspecified), 118 to 120 °C. With `CSc1nccc(Oc2ccc(NC(=O)c3cc(F)cc(OC4CCCC4)c3)c3ccccc23)n1` the figure was 115 to 116 °C; with `C=CCC(c1ccc(C(O)(C(F)(F)F)C(F)(F)F)cc1)S(=O)(=O)c1ccccc1` (stereo unspecified), 148 °C. With `COc1ncc(CN2C(=O)C3(COc4cc5c(cc43)OCCO5)c3ccccc32)cn1` (stereo unspecified) the figure was 102 to 104 °C; with `CCC(Cl)C(=O)Nc1c(C(=O)CC(=O)Nc2nccs2)cccc1C(F)(F)F` (stereo unspecified), 170 °C; with `Nc1ccccc1Oc1cc(-c2ccc(C(F)(F)F)cc2)ncn1`, 188 °C. As to `CSC1=Nc2ccccc2Sc2nccn21`, the melting point is 116 to 118 °C. To `COC(=O)c1c(-c2ccc(Cl)cc2)ccnc1Sc1nc(OC)cc(OC)n1` belongs 138 to 142 °C; to `CC(=O)NC1=CC(C)(C)Oc2cc3nonc3cc21`, 218 to 220 °C. To `CC1=C(C(=O)OCC(C)C)C(c2cccc([N+](=O)[O-])c2)c2c(N)nc(N)nc2N1` (stereo unspecified) belongs 130 °C; to `CCNC(=O)c1c(Cl)cccc1NC(C)(C)C`, 139 to 140 °C; to `CCN(CC)S(=O)(=O)c1cc(Cl)c(Cl)c(Cl)c1SCCl`, 82 to 83 °C.

`O=[N+]([O-])c1ccc(Cl)cc1Nc1ccccc1Cl` had a melting point of 97 °C. To `CC(C)(C)OC(=O)CCN1CCN(CC2CN(c3ccc(C(=N)NC(=O)c4ccccc4)cc3)C(=O)O2)CC1` (stereo unspecified) belongs 136 to 137 °C; to `O=c1ccc2nc3ccccc3sc-2c1`, 157 to 159 °C. With `O=[N+]([O-])c1ccc2[nH]cc(CCCI)c2c1` the figure was 95 to 98 °C; with `CCOC(=O)CC(O)CC(O)C=Cc1c(C(C)C)sc(-c2ccccc2)c1-c1ccc(F)cc1` (stereo unspecified), 123 to 125 °C; with `Cn1ncc(/C=C/C(=O)Nc2ccc(Cc3nnco3)cc2)c1-c1ccc(F)cc1`, 223 to 224 °C. To `CN(C)C(=O)c1cnn(-c2c(Cl)cc(Cl)cc2Cl)c1N` belongs 226 to 228 °C; to `COC(=O)[C@H](O)[C@@H](NC(=O)c1ccccc1)c1ccccc1`, 184 to 185 °C. In turn, `CC1(C)Cc2c(c(N3CCCC3)nc3sc4c(NCc5ccccn5)ncnc4c23)CO1` came in with a melting point of 249 to 251 °C. With `CC(=O)c1ccc(OCCNC(=O)OCc2ccccc2)cc1` the figure was 80 to 81 °C; with `CN1C(=O)C2(COc3cc4c(cc32)OCCO4)c2c(OCc3ncccc3C(F)(F)F)cccc21` (stereo unspecified), 157 to 159 °C.

Take `COc1ccccc1C1(O)C(O)CC(c2ccccc2)(c2ccccc2)C2CN(Cc3ccccc3)CC21` (stereo unspecified): the melting point came to 236 °C. For the molecule `CC1Cc2ccccc2C(C(S)(C#N)C(=O)O)=N1` (stereo unspecified), the melting point fell in the range of 159 to 160 °C. In turn, `NC(=O)c1c(-c2cnccn2)ssc1=S` yielded a melting point of 267 °C. To `Cc1ccccc1Sc1cncc2sc(C(N)=O)cc12` belongs 170 to 172 °C; to `CCOc1ncc(Br)cc1C(=O)O`, 122 to 124 °C. Molecule `O=[N+]([O-])c1ccc(-c2cc(C(F)(F)C(F)(F)C(F)(F)F)nc(-c3ccc(C(F)(F)F)cc3)n2)cc1` had a melting point of 191 °C.

As to `Cc1cc(-c2sc(N3CCN(Cc4ccc(F)cc4)C3=O)nc2C)n[nH]1`, the melting point fell in the range of 218 to 221 °C. Turning to `COC(=O)c1c(C(=O)OC)c(-c2ccc(OC)cc2)c2cc3c(cc2c1O)OCO3`, the melting point is 169 to 171 °C. To `COc1ccc(OCCCN2CCN(c3ccc(Cl)nn3)CC2)cc1` belongs 123 °C. With `CC(Cc1cccc([N+](=O)[O-])c1)[N+](=O)[O-]` (stereo unspecified) the figure was 56 to 58 °C; with `Fc1cccc(-c2ccc3nncn3n2)c1`, 159 to 161 °C; with `COc1ccc2cc(C#N)ccc2c1Br`, 177 to 178 °C.

As to `CC(C)c1cccc(C(C)C)c1NC(=O)CN1CCCN(CCCSc2nc3ncccc3o2)CC1`, the melting point was 73 to 75 °C. To `Cc1ccc(C2COc3c(ccc(O)c3C)C2)cc1` (stereo unspecified) belongs 136 to 137 °C. With `O=C(O)CCc1cccc(-c2nc(=O)c3ccc(Cl)cc3s2)n1` the figure was 224 to 225 °C.
